Patent publication US5162499A, “Synthetic peptides for the treatment of AIDS” (Heterocyclic Research, Inc., priority 1991, dated 1992)

Assays:
Human monocytes = assay: Chemotaxis assay (monocyte migration in agarose plates); format: cell-based; set-up: key: (cells migrating to attractant − cells migrating to buffer)/10
Description: Briefly, monocyte migration is directly observed in a chemotaxis chamber.
A comparative study comparing the chemotactic activity of the peptides of the invention with the chemotactic activity of peptide T (C. B. Pert et al., Proc. Natl. Acad. Sci., Vol. 83, pp. 9254-9258, 1986) was undertaken. […] Human monocytes were obtained by the known technique of layering heparinized blood on FICOLL-HYPAQUE differential dentrifugation medium in a centrifuge tube and spinning to separate the red blood cells from plasma and the monolayered monocytes. The monocytes were pipetted off and then washed with physiological saline.
The agarose plates were also prepared in accordance with conventional methods. Agarose type II (0.4 g), available from Sigma Chemical, and LITEX gelatin (0.3 g) were combined and heated until the gelatin was thoroughly dissolved. RMPI-HANK buffer (4 ml), distilled water (15.2 ml) and saturated NaHCO3 solution (0.8 ml) were then added to the agarose gelatin and mixed to homogeneity. 5 ml aliquots of the resulting solution were poured into plastic petri dishes (FALCON 55 mm) and allowed to gel. After the agarose has sufficiently hardened, wells, 3 mm in diameter were cut in the agarose, such that each dish had six rows of wells radiating from the center of the dish, each row containing three wells spaced apart by a distance of 3 mm. Thus, each plate was used to assay two test samples in triplicate. 8 ul of the test peptide (in 120 mM HEPES buffer) was placed on the outermost well, 8 ul of monocyte cell solution was placed in the center well and 8 ul of RPMI-HANKS buffer was placed in the innermost well. The migration of monocytes was visually observed and the number of migrating cells was determined. A chemotactic index was calculated as the number of cells which migrated toward the attractant, i.e., test peptide or control, less the number of cells that migrated towards the buffer divided by 10. Formyl-Met-Leu-Phe (FMLP) and (D-Ala)Peptide-T were used as positive control and HEPES buffer and Leu-Gly-Gly were used as negative controls.

[1] = system: binding of HIV to T4 cells; conditions: reported by Pert et al., PNAS 1986; cited from earlier work
[2] = attractant concentration 10^-9 M
[3] = attractant concentration 10^-10 M
[4] = attractant concentration 10^-11 M

For “ALA--SER--SER--SER--ASN--TYR--MET (ASSSNYM; printed: ALA--SER--SER--SER--ASN--TYR--MET) [Example 6, linear heptapeptide]”, the “Chemotactic Index” value (Human monocytes; [2]) was 4.9, the “Chemotactic Index” value (Human monocytes; [3]) was 4.7 and the “Chemotactic Index” value (Human monocytes; [4]) was 5.1.
For “Ala-Ser-Thr-Thr-Thr-Asn-Tyr-Thr [peptide T]”, the “Blocking of the binding of HIV to T4 cells (in words)” value [1] is given as “block the binding of HIV to T4 cells”.
For “H-SER-SER-ASN-TYR-MET (SSNYM; printed: SER-SER-ASN-TYR-MET) [Example 8, linear pentapeptide]”, the “Chemotactic Index” value (Human monocytes; [2]) was 5.0, the “Chemotactic Index” value (Human monocytes; [3]) was 4.8 and the “Chemotactic Index” value (Human monocytes; [4]) was 6.0.
In the case of “SER--SER--SER--ASN--TYR--MET (SSSNYM; printed: SER--SER--SER--ASN--TYR--MET) [Example 7, linear hexapeptide]”, the “Chemotactic Index” value (Human monocytes; [2]) is reported as 4.6, the “Chemotactic Index” value (Human monocytes; [3]) is reported as 5.1 and the “Chemotactic Index” value (Human monocytes; [4]) is reported as 5.3.
